biological target: T1, RON Kinase (Homo sapiens, UniProt Q04912); assay: RON Kinase ADP Glo Assay; assay type: biochemical; details: ratio cMET IC50 / RON IC50
T1 construct: purchased Promega V8071
Protocol: RON Kinase ADP Glo Assay • Assay Buffer: 40 mM Tris-HCl, pH7.5, 20 mM MgCl2, 0.1 mg/mL BSA • RON Kinase+ADP-Glo™ Assay (Promega #: V8071) • Substrate: […] Axltide • Enzyme: 100 ng/μL RON Kinase • ATP: 10 mM • ADP-Glo™ Reagent • Kinase Detection Reagent • 384-well white assay plates Kinase assay was done by following instructions from the kit. Briefly, a ten-point serial dilution of compound was prepared at 5× in assay buffer with the final assay concentrations starting at 300 nM, 100 nM, 30 nM, 10 nM . . . 0 nM. Enzyme, substrate, and ATP were used at 25 ng, 2000 ng, and 25 µM, respectively. The assay plate was set up by mixing the components in a total reaction volume of 10 μL per well. The plate was centrifuged gently for 10 seconds and incubated at room temperature (RT) for 60 minutes in the dark. The ADP-Glo Reagent and kinase detection reagent were added and incubated as recommended. The reaction was quantified by measuring luminescence on the Perkin Elmer Envision plate reader.

T1 sequence (Q04912 25-1400): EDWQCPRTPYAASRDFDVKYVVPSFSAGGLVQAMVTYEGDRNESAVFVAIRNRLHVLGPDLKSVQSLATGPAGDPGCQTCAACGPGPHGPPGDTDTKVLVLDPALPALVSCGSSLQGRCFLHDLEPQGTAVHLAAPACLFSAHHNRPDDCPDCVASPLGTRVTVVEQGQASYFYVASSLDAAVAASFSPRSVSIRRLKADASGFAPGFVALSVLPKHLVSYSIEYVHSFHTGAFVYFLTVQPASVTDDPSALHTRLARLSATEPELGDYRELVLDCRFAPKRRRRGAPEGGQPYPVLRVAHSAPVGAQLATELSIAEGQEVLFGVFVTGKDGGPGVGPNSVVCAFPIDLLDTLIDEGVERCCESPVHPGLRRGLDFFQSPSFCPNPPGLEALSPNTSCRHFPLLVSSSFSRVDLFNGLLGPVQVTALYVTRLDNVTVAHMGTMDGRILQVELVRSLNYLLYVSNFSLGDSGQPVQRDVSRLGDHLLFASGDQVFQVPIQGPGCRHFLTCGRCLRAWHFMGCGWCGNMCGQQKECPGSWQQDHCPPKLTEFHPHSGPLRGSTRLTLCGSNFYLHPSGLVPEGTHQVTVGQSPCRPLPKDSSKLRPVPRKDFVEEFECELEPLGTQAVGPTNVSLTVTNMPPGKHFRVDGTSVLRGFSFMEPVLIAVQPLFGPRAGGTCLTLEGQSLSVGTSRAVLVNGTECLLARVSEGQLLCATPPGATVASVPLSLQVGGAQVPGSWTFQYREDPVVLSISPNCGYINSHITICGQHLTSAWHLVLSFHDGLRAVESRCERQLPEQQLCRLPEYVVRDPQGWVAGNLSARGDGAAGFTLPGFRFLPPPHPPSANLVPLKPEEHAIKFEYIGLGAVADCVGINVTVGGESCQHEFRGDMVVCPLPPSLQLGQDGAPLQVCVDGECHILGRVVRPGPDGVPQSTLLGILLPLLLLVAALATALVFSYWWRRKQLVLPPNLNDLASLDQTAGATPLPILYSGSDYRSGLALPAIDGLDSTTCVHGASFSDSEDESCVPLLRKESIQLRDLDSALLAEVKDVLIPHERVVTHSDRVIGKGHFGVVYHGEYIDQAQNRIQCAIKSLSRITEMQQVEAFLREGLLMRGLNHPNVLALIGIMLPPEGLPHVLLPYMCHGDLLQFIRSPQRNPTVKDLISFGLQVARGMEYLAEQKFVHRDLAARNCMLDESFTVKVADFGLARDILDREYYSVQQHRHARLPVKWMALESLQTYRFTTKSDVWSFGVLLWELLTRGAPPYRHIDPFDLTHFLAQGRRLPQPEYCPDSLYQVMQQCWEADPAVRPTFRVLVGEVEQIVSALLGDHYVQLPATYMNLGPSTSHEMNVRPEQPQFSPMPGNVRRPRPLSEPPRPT

| SMILES | Fold Selectivity (cMET/RON) |
| --- | --- |
| Cn1cnc(-c2cc3ncnc(Oc4ccc(NC(=O)c5cnn(-c6ccc(F)cc6)c5C(F)(F)F)cc4F)c3s2)c1 [Compound 2, N-(3-fluoro-4-((6-(1-methyl-1H-imidazol-4-yl)thieno[3,2-d]pyrimidin-4-yl)oxy)phenyl)-1-(4-fluorophenyl)-5-(trifluoromethyl)-1H-pyrazole-4-carboxamide] | +++ (represents a value greater than 3 up to 50) |
| Cn1cc(-c2c(Oc3ccc(NC(=O)c4cnn(-c5ccc(F)cc5)c4C(F)(F)F)cc3F)ccnc2N)cn1 [Compound 5, N-(4-((2-amino-3-(1-methyl-1H-pyrazol-4-yl)pyridin-4-yl)oxy)-3-fluorophenyl)-1-(4-fluorophenyl)-5-(trifluoromethyl)-1H-pyrazole-4-carboxamide] | +++ (represents a value greater than 3 up to 50) |
| Cn1cc(-c2c(Oc3ccc(NC(=O)c4cc(-c5ccc(F)cc5)no4)cc3F)ccnc2N)cn1 [Compound 21, N-(4-((2-amino-3-(1-methyl-1H-pyrazol-4-yl)pyridin-4-yl)oxy)-3-fluorophenyl)-3-(4-fluorophenyl)isoxazole-5-carboxamide] | + (represents a value below 0.5) |
| CCOc1ccn(-c2ccc(F)cc2)c(=O)c1C(=O)Nc1ccc(Oc2ccnc(N)c2P(C)(C)=O)c(F)c1 [Compound 58, N-{4-[2-amino-3-(dimethylphosphoryl)-4-pyridyloxy]-3-fluorophenyl}-4-ethoxy-1-(4-fluorophenyl)-2-oxo-1,2-dihydronicotinamide] | + (represents a value below 0.5) |
| CP(C)(=O)c1cncnc1Oc1ccc(NC(=O)c2cnn(-c3ccc(F)cc3)c2C(F)(F)F)cc1F [Compound 54, N-{4-[5-(dimethylphosphoryl)-4-pyrimidinyloxy]-3-fluorophenyl}-1-(p-fluorophenyl)-5-(trifluoromethyl)-4-pyrazolecarboxamide] | +++ (represents a value greater than 3 up to 50) |
| CCCN1CCN(CCc2cccc(Nc3nccc(Oc4ccc(NC(=O)c5cnn(-c6ccc(F)cc6)c5C(F)(F)F)cc4F)n3)c2)CC1 [Compound 47, N-(3-Fluoro-4-((2-((3-(2-(4-Propylpiperazin-1-Yl)Ethyl)Phenyl)Amino)Pyrimidin-4-Yl)Oxy)Phenyl)-1-(4-Fluorophenyl)-5-(Trifluoromethyl)-1H-Pyrazole-4-Carboxamide] | +++ (represents a value greater than 3 up to 50) |

From patent US20260132158A1, “PHENYL OXY AMIDE KINASE INHIBITORS” (THE TRANSLATIONAL GENOMICS RESEARCH INSTITUTE, priority 2022, published 2026)
